*1 amine or outer side, *2 acyl side, *3 side chain or, on linkers, in order; H or OH if unused. Where a SMILES comes first, the peptide text is derived from it. Where no end group is shown, it is not given here. Side-chain parts run from the residue outwards. The star is where a group is joined. γGlu = O=C(O)[C@H](CCC(=O)[*:2])N[*:1]; Palmitoyl = CCCCCCCCCCCCCCCC(=O)*; Hexanoyl = CCCCCC(=O)*; Propionyl = CCC(=O)* Some results are limits rather than exact numbers.

This note sets out measurements from US20080096811A1, “[…] VPAC2 RECEPTOR PEPTIDE AGONISTS” (Eli Lilly and Company, published 2008).

The target of experiment [1] is T1, human VPAC2 (Homo sapiens, UniProt P41587).
T1 construct: expressed in transfected cells
T1 sequence (P41587 24-438): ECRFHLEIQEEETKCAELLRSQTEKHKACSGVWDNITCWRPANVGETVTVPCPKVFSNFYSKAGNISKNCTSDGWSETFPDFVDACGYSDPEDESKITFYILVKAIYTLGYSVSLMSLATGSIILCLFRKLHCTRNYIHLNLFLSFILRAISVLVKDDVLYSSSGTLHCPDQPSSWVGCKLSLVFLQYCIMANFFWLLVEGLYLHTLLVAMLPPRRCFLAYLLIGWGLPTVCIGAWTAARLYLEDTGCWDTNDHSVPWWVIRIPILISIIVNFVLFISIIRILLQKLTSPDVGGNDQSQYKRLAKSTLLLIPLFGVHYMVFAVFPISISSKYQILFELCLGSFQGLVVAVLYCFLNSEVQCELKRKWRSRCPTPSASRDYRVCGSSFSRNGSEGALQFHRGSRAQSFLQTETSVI
Kind of experiment: Alpha screen cAMP in vitro potency, human VPAC2. The format is cell-based. As for the experimental part:
Alpha screen: Cells are washed in the culture flask once with PBS. Then, the cells are rinsed with enzyme free dissociation buffer. The dissociated cells are removed. The cells are then spun down and washed in stimulation buffer. For each data point, 50,000 cells suspended in stimulation buffer are used. To this buffer, Alpha screen acceptor beads are added along with the stimuli. This mixture is incubated for 60 minutes. Lysis buffer and Alpha screen donor beads are added and are incubated for 60 to 120 minutes. The Alpha screen signal (indicative of intracellular cAMP levels) is read in a suitable instrument (e.g. AlphaQuest from Perlin-Elmer). Steps including Alpha screen donor and acceptor beads are performed in reduced light.

Experiment [2] concerns the target T1, human VPAC2. The experiment in a line: Filter binding assay, human VPAC2 membranes, 125I-labeled VIP tracer. As for the experimental part: (§1) For this assay, the solutions and equipment include:
(§2) Presoak solution: 0.5% Polyethyleneamine in Aqua dest.
(§3) Buffer for flushing filter plates: 25 mM […] pH 7.4
(§4) Blocking buffer: 25 mM HEPES pH 7.4; 0.2% protease free BSA
(§5) Assay buffer: 25 mM HEPES pH 7.4; 0.5% protease free BSA
(§6) Dilution and assay plate: PS-Microplate, U form
(§7) Filtration Plate Multiscreen FB Opaque Plate; […] Type B Glasfiber filter
(§8) In order to prepare the filter plates, aspirate the presoak solution by vacuum filtration. Flush the plates twice with 200 μL flush buffer. Add 200 μL blocking buffer to the filter plate. The filter plate is then incubated […] for 1 hour at room temperature.
(§9) Fill the assay plate with 25 μL assay buffer, 25 μL membranes (2.5 μg) suspended in assay buffer, 25 μL compound (agonist) in assay buffer, and 25 μL tracer (about 40000 cpm) in assay buffer. Incubate the filled plate for 1 hour with shaking.
(§10) Conduct the transfer from assay plate to filter plate. Aspirate the blocking buffer by vacuum filtration and wash two times with flush buffer. Transfer 90 μL from the assay plate to the filter plate. Aspirate the 90 μL transferred from assay plate and wash three times with 200 μL flush buffer. Remove the plastic support. Dry for 1 hour at 60° C. Add 30 μL Microscint. Perform the count.

The target in another experiment is human PAC1 (Homo sapiens, UniProt P41586). Kind of experiment: biochemical. As for the experimental part:
as §1, §2, §3, §4, §5, §6, §7, §8, §9, §10

The next experiment addresses T2, human VPAC1 (Homo sapiens, UniProt P32241).
T2 sequence (P32241 31-457): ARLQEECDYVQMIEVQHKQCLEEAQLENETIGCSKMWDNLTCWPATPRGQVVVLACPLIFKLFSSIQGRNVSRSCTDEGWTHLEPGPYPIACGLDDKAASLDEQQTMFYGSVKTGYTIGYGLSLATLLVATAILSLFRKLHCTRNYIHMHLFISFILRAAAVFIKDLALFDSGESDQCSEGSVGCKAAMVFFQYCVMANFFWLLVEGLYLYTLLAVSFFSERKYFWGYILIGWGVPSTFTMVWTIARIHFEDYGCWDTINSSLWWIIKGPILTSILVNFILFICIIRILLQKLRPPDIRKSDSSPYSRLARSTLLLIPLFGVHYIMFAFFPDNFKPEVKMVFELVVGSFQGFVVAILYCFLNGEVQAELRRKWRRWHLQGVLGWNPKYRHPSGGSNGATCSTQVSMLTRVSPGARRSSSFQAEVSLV
Kind of experiment: Filter binding assay, human VPAC1 membranes, 125I-labeled VIP tracer. More on the design: expressed in transfected cells. As for the experimental part:
as §1, §2, §3, §4, §5, §6, §7, §8, §9, §10

Experiment [3] deals with T3, human VPAC2 receptor (human) (UniProt P41587).
T3 sequence: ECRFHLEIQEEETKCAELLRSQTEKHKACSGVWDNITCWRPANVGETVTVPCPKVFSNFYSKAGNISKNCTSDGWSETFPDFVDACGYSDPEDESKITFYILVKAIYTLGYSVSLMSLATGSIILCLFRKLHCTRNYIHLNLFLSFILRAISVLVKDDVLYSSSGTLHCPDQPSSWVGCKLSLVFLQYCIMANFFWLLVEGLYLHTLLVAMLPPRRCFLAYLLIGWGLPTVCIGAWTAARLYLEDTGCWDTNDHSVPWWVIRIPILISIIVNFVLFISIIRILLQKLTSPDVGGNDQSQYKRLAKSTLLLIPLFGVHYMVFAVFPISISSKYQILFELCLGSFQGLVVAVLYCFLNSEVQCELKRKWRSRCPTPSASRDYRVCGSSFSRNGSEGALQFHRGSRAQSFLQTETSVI

human PAC1, sequence (P41586 21-468): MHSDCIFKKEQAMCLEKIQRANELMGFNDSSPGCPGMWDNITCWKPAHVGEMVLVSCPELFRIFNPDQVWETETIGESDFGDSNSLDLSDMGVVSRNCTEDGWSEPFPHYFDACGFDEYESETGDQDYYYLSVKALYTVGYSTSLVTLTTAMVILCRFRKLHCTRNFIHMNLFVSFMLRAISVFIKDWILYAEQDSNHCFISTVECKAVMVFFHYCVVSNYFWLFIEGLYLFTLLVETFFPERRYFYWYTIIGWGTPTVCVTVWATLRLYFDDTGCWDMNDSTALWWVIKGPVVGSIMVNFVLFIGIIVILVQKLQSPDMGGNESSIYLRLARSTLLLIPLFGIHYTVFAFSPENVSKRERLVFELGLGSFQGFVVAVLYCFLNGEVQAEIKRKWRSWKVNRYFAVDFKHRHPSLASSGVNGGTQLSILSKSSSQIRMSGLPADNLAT

`CC[C@H](C)[C@H](NC(=O)[C@H](CO)NC(=O)[C@H](CCC(N)=O)NC(=O)[C@H](CC(C)C)NC(=O)[C@H](Cc1ccc(O)cc1)NC(=O)[C@H](CCCCN)NC(=O)[C@H](CCCCN)NC(=O)[C@H](C)NC(=O)[C@H](C)NC(=O)[C@@H](NC(=O)[C@H](CCC(N)=O)NC(=O)[C@H](CCCCN)NC(=O)[C@H](CCCNC(=N)N)NC(=O)[C@H](CC(C)C)NC(=O)[C@H](CCCNC(=N)N)NC(=O)[C@@H](NC(=O)[C@H](Cc1ccc(O)cc1)NC(=O)[C@H](CC(N)=O)NC(=O)[C@H](CC(=O)O)NC(=O)[C@@H](NC(=O)[C@H](Cc1ccccc1)NC(=O)[C@@H](NC(=O)[C@H](C)NC(=O)[C@H](CC(=O)O)NC(=O)[C@H](CO)NC(=O)[C@@H](N)Cc1c[nH]cn1)C(C)C)[C@@H](C)O)[C@@H](C)O)C(C)C)C(=O)N[C@@H](CCCCN)C(=O)N[C@@H](CC(N)=O)C(=O)N[C@@H](CO)C(=O)N[C@@H](CCCNC(=N)N)C(=O)N[C@H](C(=O)N[C@@H](CO)C(=O)N1CCC[C@H]1C(=O)N1CCC[C@H]1C(=O)N1CCC[C@H]1C(=O)N[C@@H](CCCCNC(=O)[C@@H](N)Cc1c[nH]c2ccccc12)C(N)=O)[C@@H](C)O` [Agonist P128] (H-HSDAVFTDNYTRLRKQVAAKKYLQSIKNSRTSPPPK(Trp)-NH2): at human VPAC2 [1], the EC50 is 1.78 nM. The 50% inhibitory concentration (IC50) is 2.25 nM at human VPAC2 [2], 104 nM at human PAC1 and 110 nM at human VPAC1.

In the case of `CCCCCC(=O)N[C@@H](Cc1c[nH]cn1)C(=O)N[C@@H](CO)C(=O)N[C@@H](CC(=O)O)C(=O)N[C@@H](C)C(=O)N[C@H](C(=O)N[C@@H](Cc1ccccc1)C(=O)N[C@H](C(=O)N[C@@H](CC(=O)O)C(=O)N[C@@H](CC(N)=O)C(=O)N[C@@H](Cc1ccc(O)cc1)C(=O)N[C@H](C(=O)N[C@@H](CCCNC(=N)N)C(=O)N[C@@H](CC(C)C)C(=O)N[C@@H](CCCNC(=N)N)C(=O)N[C@@H](CCCCN)C(=O)N[C@@H](CCC(N)=O)C(=O)N[C@H](C(=O)N[C@@H](C)C(=O)N[C@@H](C)C(=O)N[C@@H](CCCCN)C(=O)N[C@@H](CCCCN)C(=O)N[C@@H](Cc1ccc(O)cc1)C(=O)N[C@@H](CC(C)C)C(=O)N[C@@H](CCC(N)=O)C(=O)N[C@@H](CO)C(=O)N[C@H](C(=O)N[C@@H](CCCCN)C(=O)N[C@@H](CC(N)=O)C(=O)N[C@@H](CO)C(=O)N[C@@H](CCCNC(=N)N)C(=O)N[C@H](C(=O)N[C@@H](CO)C(=O)N1CCC[C@H]1C(=O)N1CCC[C@H]1C(=O)N1CCC[C@H]1C(=O)N[C@@H](CCCCNC(=O)[C@@H](N)Cc1c[nH]c2ccccc12)C(N)=O)[C@@H](C)O)[C@@H](C)CC)C(C)C)[C@@H](C)O)[C@@H](C)O)C(C)C` [Agonist P118] (Hexanoyl-HSDAVFTDNYTRLRKQVAAKKYLQSIKNSRTSPPPK(Trp)-NH2), the figures for the IC50 at human VPAC2 [2], on human PAC1 and on human VPAC1 were 0.25 nM, 125 nM and 76.3 nM, respectively.

`CCCCCC(=O)N[C@@H](Cc1c[nH]cn1)C(=O)N[C@@H](CO)C(=O)N[C@@H](CC(=O)O)C(=O)N[C@@H](C)C(=O)N[C@H](C(=O)N[C@@H](Cc1ccccc1)C(=O)N[C@H](C(=O)N[C@@H](CC(=O)O)C(=O)N[C@@H](CC(N)=O)C(=O)N[C@@H](Cc1ccc(O)cc1)C(=O)N[C@H](C(=O)N[C@@H](CCCNC(=N)N)C(=O)N[C@@H](CC(C)C)C(=O)N[C@@H](CCCNC(=N)N)C(=O)N[C@@H](CCCCN)C(=O)N[C@@H](C)C(=O)N[C@@H](C)C(=O)N[C@@H](C)C(=O)N[C@@H](C)C(=O)N[C@@H](CCCCN)C(=O)N[C@@H](CCCCN)C(=O)N[C@@H](Cc1ccc(O)cc1)C(=O)N[C@@H](CC(C)C)C(=O)N[C@@H](CCC(N)=O)C(=O)N[C@@H](CO)C(=O)N[C@H](C(=O)N[C@@H](CCCCN)C(=O)N[C@@H](CC(N)=O)C(=O)N[C@@H](CO)C(=O)N[C@@H](CCCNC(=N)N)C(=O)N[C@H](C(=O)N[C@@H](CO)C(=O)N1CCC[C@H]1C(=O)N1CCC[C@H]1C(=O)N1CCC[C@H]1C(N)=O)[C@@H](C)O)[C@@H](C)CC)[C@@H](C)O)[C@@H](C)O)C(C)C` [Agonist P178] (Hexanoyl-HSDAVFTDNYTRLRKAAAAKKYLQSIKNSRTSPPP-NH2) yielded a 50% effective concentration (EC50) on human VPAC2 [1] of 0.12 nM. In addition, the IC50 at human VPAC2 [2] was 0.16 nM; on human VPAC1, 35.7 nM.

At human PAC1, `CC[C@H](C)[C@H](NC(=O)[C@H](CO)NC(=O)[C@H](CC(N)=O)NC(=O)[C@H](CC(C)C)NC(=O)[C@H](Cc1ccc(O)cc1)NC(=O)[C@H](CCCCN)NC(=O)[C@H](CCCCN)NC(=O)[C@@H](NC(=O)[C@H](C)NC(=O)[C@H](CCSC)NC(=O)[C@H](CCC(N)=O)NC(=O)[C@H](CCCCN)NC(=O)[C@H](CCCN=C(N)N)NC(=O)[C@H](CC(C)C)NC(=O)[C@H](CCCN=C(N)N)NC(=O)[C@@H](NC(=O)[C@H](Cc1ccc(O)cc1)NC(=O)[C@H](CC(N)=O)NC(=O)[C@H](CC(=O)O)NC(=O)[C@@H](NC(=O)[C@H](Cc1ccccc1)NC(=O)[C@@H](NC(=O)[C@H](C)NC(=O)[C@H](CC(=O)O)NC(=O)[C@H](CO)NC(=O)[C@@H](N)Cc1cnc[nH]1)C(C)C)[C@@H](C)O)[C@@H](C)O)C(C)C)C(=O)N[C@@H](CC(C)C)C(=O)N[C@@H](CC(N)=O)C(=O)O` [VIP, reference compound] had an IC50 of more than 25000 nM.

As to HSDAVFTDNYTRLRKQAAAKKYLQSIKNSRTSPPP-NH2 [P96], in experiment [3], the EC50 (nM) for cAMP generation, Alpha Screen was found to be 0.9 nM.

B1: P95 (peptide)
peptide: Propionyl-HSDAVFTDNYTRLRKQVAAKKYLQSIKNSRTSPPPK([γGlu-Palmitoyl])-NH2
SMILES: CCCCCCCCCCCCCCCC(=O)N[C@@H](CCC(=O)NCCCC[C@H](NC(=O)[C@@H]1CCCN1C(=O)[C@@H]1CCCN1C(=O)[C@@H]1CCCN1C(=O)[C@H](CO)NC(=O)[C@@H](NC(=O)[C@H](CCCNC(=N)N)NC(=O)[C@H](CO)NC(=O)[C@H](CC(N)=O)NC(=O)[C@H](CCCCN)NC(=O)[C@@H](NC(=O)[C@H](CO)NC(=O)[C@H](CCC(N)=O)NC(=O)[C@H](CC(C)C)NC(=O)[C@H](Cc1ccc(O)cc1)NC(=O)[C@H](CCCCN)NC(=O)[C@H](CCCCN)NC(=O)[C@H](C)NC(=O)[C@H](C)NC(=O)[C@@H](NC(=O)[C@H](CCC(N)=O)NC(=O)[C@H](CCCCN)NC(=O)[C@H](CCCNC(=N)N)NC(=O)[C@H](CC(C)C)NC(=O)[C@H](CCCNC(=N)N)NC(=O)[C@@H](NC(=O)[C@H](Cc1ccc(O)cc1)NC(=O)[C@H](CC(N)=O)NC(=O)[C@H](CC(=O)O)NC(=O)[C@@H](NC(=O)[C@H](Cc1ccccc1)NC(=O)[C@@H](NC(=O)[C@H](C)NC(=O)[C@H](CC(=O)O)NC(=O)[C@H](CO)NC(=O)[C@H](Cc1c[nH]cn1)NC(=O)CC)C(C)C)[C@@H](C)O)[C@@H](C)O)C(C)C)[C@@H](C)CC)[C@@H](C)O)C(N)=O)C(=O)O
In experiment [3], B1 displayed an EC50 (nM) for cAMP generation, Alpha Screen of 0.24 nM and an EC50 (nM) for cAMP generation, DiscoveRx of 0.45 nM.
